*1 amine or outer side, *2 acyl side, *3 side chain or, on linkers, in order; H or OH if unused. Where a SMILES comes first, the peptide text is derived from it. The star is where a group is joined. pNA = O=[N+]([O-])c1ccc(N*)cc1; AMC = Cc1cc(=O)oc2cc(N*)ccc12; Suc = O=C(CCC(=O)[*:2])[*:1]; βNA = c1ccc2cc(N*)ccc2c1; Cbz = O=C(OCc1ccccc1)*
Target: DPPI (Homo sapiens, UniProt P53634)
Assay: Substrate specificity of human DPPI: hydrolysis of synthetic peptide substrates
Assay type: biochemical
Design: Human DPPI is now established to constitute a 200,000 Da glycoprotein with 24,000 Da subunits; from tissue; host or cells: human cadaveric spleen; unit not given here
From the text: The specificity of human DPPI was studied using a variety of synthetic peptide substrates. These substrates appear in Table 5.
Substrates with blocked amino-termini, with proline at the P1 position, arginine at the P2, or containing only single amino acids, were not hydrolyzed. […] The amino-terminal sequence of bovine α-casein, Arg--Pro, prohibits the processive cleavage of amino-terminal dipeptides from this protein and therefore should increase the ability to specifically detect endoproteolytic activity, if present.

DPPI, sequence (P53634 231-394 limits assumed): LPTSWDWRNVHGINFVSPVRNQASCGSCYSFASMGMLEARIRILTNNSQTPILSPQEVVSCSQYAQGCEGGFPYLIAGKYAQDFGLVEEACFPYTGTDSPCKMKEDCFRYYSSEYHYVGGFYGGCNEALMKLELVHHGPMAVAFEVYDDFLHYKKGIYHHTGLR
DPPI, sequence (P53634 25-134 limits assumed): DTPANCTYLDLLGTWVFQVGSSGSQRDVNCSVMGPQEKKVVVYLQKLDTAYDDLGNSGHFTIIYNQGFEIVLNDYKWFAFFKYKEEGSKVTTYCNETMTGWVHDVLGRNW
DPPI, sequence (P53634 395-463 limits assumed): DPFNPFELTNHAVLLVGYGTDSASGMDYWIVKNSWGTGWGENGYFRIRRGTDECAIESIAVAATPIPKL

Row | SMILES | hydrolysis of substrate peptide by human DPPI (substrate concentration 100 μM) | hydrolysis of substrate peptide by human DPPI (substrate concentration 500 μM)
1 | Cc1cc(=O)oc2cc(NC(=O)C(CCCCN)NC(=O)OCc3ccccc3)ccc12 (centres unmarked) [CBZ-Lys-AMC] | 0 | 0
2 | NC(N)=NCCC[C@H](N)C(=O)Nc1ccc2ccccc2c1 [Arg-βNA] | 0 | 0
3 | N=C(N)NCCC[C@H](NC(=O)[C@@H](N)CCCNC(=N)N)C(=O)Nc1ccc2ccccc2c1 [Arg-Arg-βNA] (H-Arg-Arg-βNA) | 0 | 0
4 | COc1cc(NC(=O)C(Cc2ccccc2)NC(=O)CN)cc2ccccc12 (stereo not drawn) [Gly-Phe-MNA] | 3500 | 5750
5 | NCC(=O)Nc1ccc2ccccc2c1 [Gly-βNA] | 0 | 0
6 | COc1cc(NC(=O)C(Cc2ccc(O)cc2)NC(=O)C(N)CO)cc2ccccc12 (stereo not drawn) [Ser-Tyr-MNA] | 1000 | 1750
7 | NC(N)=NCCC[C@H](NC(=O)OCc1ccccc1)C(=O)N[C@@H](CCCN=C(N)N)C(=O)Nc1ccc2ccccc2c1 [CBZ-Arg-Arg-βNA] (Cbz-Arg-Arg-βNA) | 0 | 0
8 | CC(N)C(=O)NC(C)C(=O)NC(C(=O)NC(C)C(=O)Nc1ccc([N+](=O)[O-])cc1)C(C)C (stereo not drawn) [Ala-Ala-Val-Ala-pNA] (H-AAVA-pNA; configuration not given here) | 120 | 120
9 | N=C(N)NCCCC(NC(=O)OCc1ccccc1)C(=O)Nc1ccc2ccccc2c1 (centres unmarked) [CBZ-Arg-βNA] | 0 | 0
10 | Cc1cc(=O)oc2cc(NC(=O)[C@H](CCCN=C(N)N)NC(=O)[C@H](Cc3ccccc3)NC(=O)[C@@H]3CCCN3)ccc12 [Pro-Phe-Arg-AMC] (H-Pro-Phe-Arg-{AMC}) | 0 | 0
11 | N[C@@H](CO)C(=O)N[C@@H](Cc1ccc(O)cc1)C(=O)Nc1ccc2ccccc2c1 [Ser-Tyr-βNA] (H-Ser-Tyr-βNA) | 1750 | 2000
12 | C[C@H](N)C(=O)N[C@@H](C)C(=O)Nc1ccc([N+](=O)[O-])cc1 [Ala-Ala-pNA] (H-Ala-Ala-pNA) | 380 | 1000
13 | C[C@H](NC(=O)CCC(=O)O)C(=O)N[C@@H](C)C(=O)N1CCC[C@H]1C(=O)N[C@@H](Cc1ccccc1)C(=O)Nc1ccc([N+](=O)[O-])cc1 [Suc-Ala-Ala-Pro-Phe-pNA] (Suc-AAPF-pNA) | 0 | 0
14 | C[C@H](NC(=O)[C@@H](N)CC(=O)O)C(=O)Nc1ccc2ccccc2c1 [Asp-Ala-βNA] (H-Asp-Ala-βNA) | 250 | 1000
15 | COc1cc(NC(=O)[C@H](CCCN=C(N)N)NC(=O)[C@H](CC(C)C)NC(=O)[C@@H](NC(=O)OCc2ccccc2)C(C)C)cc2ccccc12 [CBZ-Val-Leu-Arg-MNA] | 0 | 0
16 | NCC(=O)N[C@@H](Cc1ccccc1)C(=O)Nc1ccc2ccccc2c1 [Gly-Phe-βNA] (H-Gly-Phe-βNA) | 2380 | 4380
17 | Cc1cc(=O)oc2cc(NC(=O)[C@H](CCCN=C(N)N)NC(=O)[C@@H]3CCCN3C(=O)CNC(=O)OCc3ccccc3)ccc12 [CBZ-Gly-Pro-Arg-AMC] (Cbz-Gly-Pro-Arg-{AMC}) | 0 | 0
18 | COc1cc(NC(=O)[C@@H]2CCCN2C(=O)CN)cc2ccccc12 [Gly-Pro-MNA] | 0 | 0
19 | O=C(NC(Cc1ccccc1)C(=O)Nc1ccc2ccccc2c1)OCc1ccccc1 (centres unmarked) [CBZ-Phe-βNA] | 0 | 0

Reference: US5602102A, “Dipeptidyl peptidase-I inhibitors and uses thereof” (Board of Regents, The Univ. of TX System, priority 1992, dated 1997)
